Legend:
Assay type in all cases: in vivo
[1] = system: barnyardgrass (Echinochloa crus-galli); test: Test A preemergence soil spray, visual injury rating 0-100; settings: 10 days, 0 = no effect, 100 = complete control
Method in brief: (§1)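 Loam-sand pots got test material in surfactant-containing solvent, either as a directed soil spray before emergence or on plants at the one- to two-leaf stage. Visual injury (0-100) was read after ten greenhouse days.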

[2] = system: blackgrass (Alopecurus myosuroides); test: as above; settings: 10 days, 0 = no effect, 100 = complete control
Method in brief: as §1

corn (Zea mays) [3] = test: as above; settings: 10 days, 0 = no effect, 100 = complete control
Method in brief: as §1

[4] = system: green foxtail (Setaria viridis); test: as above; settings: 10 days, 0 = no effect, 100 = complete control
Method in brief: as §1

kochia (Bassia scoparia) [5] = test: as above; settings: 10 days, 0 = no effect, 100 = complete control
Method in brief: as §1

[6] = system: oat, wild (wild oat, Avena fatua); test: as above; settings: 10 days, 0 = no effect, 100 = complete control
Method in brief: as §1

[7] = system: palmer (palmer amaranth, palmer pigweed, Amaranthus palmeri); test: as above; settings: 10 days, 0 = no effect, 100 = complete control
Method in brief: as §1

[8] = system: ragweed (common ragweed, Ambrosia artemisiifolia); test: as above; settings: 10 days, 0 = no effect, 100 = complete control
Method in brief: as §1

[9] = system: ryegrass, Italian (italian ryegrass, Lolium multiflorum); test: as above; settings: 10 days, 0 = no effect, 100 = complete control
Method in brief: as §1

soybean (Glycine max) [10] = test: as above; settings: 10 days, 0 = no effect, 100 = complete control
Method in brief: as §1

[11] = system: wheat (Triticum aestivum); test: as above; settings: 10 days, 0 = no effect, 100 = complete control
Method in brief: as §1

[12] = system: barnyardgrass (Echinochloa crus-galli); test: Test A postemergence application, visual injury rating 0-100; settings: 10 days
Method in brief: as §1

[13] = system: blackgrass (Alopecurus myosuroides); test: as above; settings: 10 days
Method in brief: as §1

corn (Zea mays) [14] = test: as above; settings: 10 days
Method in brief: as §1

[15] = system: green foxtail (Setaria viridis); test: as above; settings: 10 days
Method in brief: as §1

[16] = system: horseweed (Erigeron canadensis); test: as above; settings: 10 days
Method in brief: as §1

kochia (Bassia scoparia) [17] = test: as above; settings: 10 days
Method in brief: as §1

[18] = system: oat, wild (wild oat, Avena fatua); test: as above; settings: 10 days
Method in brief: as §1

[19] = system: palmer (palmer amaranth, palmer pigweed, Amaranthus palmeri); test: as above; settings: 10 days
Method in brief: as §1

[20] = system: ragweed (common ragweed, Ambrosia artemisiifolia); test: as above; settings: 10 days
Method in brief: as §1

[21] = system: ryegrass, Italian (italian ryegrass, Lolium multiflorum); test: as above; settings: 10 days
Method in brief: as §1

soybean (Glycine max) [22] = test: as above; settings: 10 days
Method in brief: as §1

[23] = system: wheat (Triticum aestivum); test: as above; settings: 10 days
Method in brief: as §1

[24] = system: barnyardgrass (Echinochloa crusgalli); test: Test B flooded paddy test, visual plant response rating 0-100; settings: 250 g ai/ha, Flood, applied to paddy water, evaluated after 13 days
Method in brief: (§2)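 Visual scores versus untreated controls were recorded 13 days after treatment of greenhouse-held plants. At the 2-leaf stage, pots were flooded 3 cm above the soil surface and compounds added straight to the water.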

[25] = system: ducksalad (Heteranthera limosa); test: as above; settings: 250 g ai/ha, Flood, applied to paddy water, evaluated after 13 days
Method in brief: as §2

rice (Oryza sativa) = test: as above; settings: 250 g ai/ha, Flood, applied to paddy water, evaluated after 13 days
Method in brief: as §2

[26] = system: sedge, umbrella (small-flower umbrella sedge, Cyperus difformis); test: as above; settings: 250 g ai/ha, Flood, applied to paddy water, evaluated after 13 days
Method in brief: as §2

[27] = 31 g ai/ha, postemergence, 0 = no effect, 100 = complete control
[28] = Postemergence, 125 g ai/ha, 0 is no effect, 100 is complete control

COC(=O)C1CCC(NC(=O)C2(C)CN(c3cc(F)cc(F)c3)C(=O)O2)C1 (centres unmarked) [Compounds 10]
10: Barnyardgrass plant response rating (0-100) ([1]; 31 g ai/ha) | Ryegrass, Italian plant response rating (0-100) ([9]; 31 g ai/ha) | Soybean plant response rating (0-100) (soybean (Glycine max) [10]; 31 g ai/ha) | Amaranth, Palmer plant response rating (0-100) [19, 27] | Plant response rating, Rice (0 to 100 scale, 0 is no effect and 100 is complete control) (rice (Oryza sativa))
90: Barnyardgrass plant response rating (0 to 100 scale) ([1]; 125 g ai/ha) | Blackgrass plant response rating (0 to 100 scale) ([2]; 125 g ai/ha) | Foxtail, Green plant response rating (0 to 100 scale) ([4]; 125 g ai/ha) | Kochia plant response rating (0 to 100 scale) (kochia (Bassia scoparia) [5]; 125 g ai/ha) | Ryegrass, Italian plant response rating (0 to 100 scale) ([9]; 125 g ai/ha) | Wheat plant response rating (0-100) ([11]; 31 g ai/ha) | Wheat plant response rating (0 to 100 scale) ([11]; 125 g ai/ha) | Blackgrass plant response rating (0 to 100 scale) [13, 28] | Foxtail, Green plant response rating (0 to 100 scale) [15, 28] | Oat, Wild plant response rating (0-100) [18, 27] | Oat, Wild plant response rating (0 to 100 scale) [18, 28] | Wheat plant response rating (0 to 100 scale) [23, 28]
0: Corn plant response rating (0-100) (corn (Zea mays) [3]; 31 g ai/ha) | Foxtail, Green plant response rating (0-100) ([4]; 31 g ai/ha) | Amaranth, Palmer plant response rating (0-100) ([7]; 31 g ai/ha) | Ragweed plant response rating (0-100) ([8]; 31 g ai/ha) | Ragweed plant response rating (0 to 100 scale) ([8]; 125 g ai/ha) | Ragweed plant response rating (0-100) [20, 27] | Ragweed plant response rating (0 to 100 scale) [20, 28]
50: Oat, Wild plant response rating (0-100) ([6]; 31 g ai/ha) | Soybean plant response rating (0 to 100 scale) (soybean (Glycine max) [10]; 125 g ai/ha) | Blackgrass plant response rating (0-100) [13, 27] | Soybean plant response rating (0-100) (soybean (Glycine max) [22]; [27]) | Plant response rating, Barnyardgrass (0 to 100 scale, 0 is no effect and 100 is complete control) [24]
100: Barnyardgrass plant response rating (0 to 100 scale) [12, 28] | Corn plant response rating (0 to 100 scale) (corn (Zea mays) [14]; [28]) | Plant response rating, Ducksalad (0 to 100 scale, 0 is no effect and 100 is complete control) [25] | Plant response rating, Sedge, Umbrella (0 to 100 scale, 0 is no effect and 100 is complete control) [26]
40: Amaranth, Palmer plant response rating (0 to 100 scale) ([7]; 125 g ai/ha) | Corn plant response rating (0-100) (corn (Zea mays) [14]; [27]) | Horseweed plant response rating (0 to 100 scale) [16, 28]
60: Barnyardgrass plant response rating (0-100) [12, 27] | Ryegrass, Italian plant response rating (0-100) [21, 27]
20: Kochia plant response rating (0-100) (kochia (Bassia scoparia) [5]; 31 g ai/ha) | Foxtail, Green plant response rating (0-100) [15, 27] | Kochia plant response rating (0-100) (kochia (Bassia scoparia) [17]; [27])
70: Corn plant response rating (0 to 100 scale) (corn (Zea mays) [3]; 125 g ai/ha) | Kochia plant response rating (0 to 100 scale) (kochia (Bassia scoparia) [17]; [28]) | Soybean plant response rating (0 to 100 scale) (soybean (Glycine max) [22]; [28])
80: Oat, Wild plant response rating (0 to 100 scale) ([6]; 125 g ai/ha) | Amaranth, Palmer / Pigweed, Palmer plant response rating (0 to 100 scale) [19, 28] | Ryegrass, Italian plant response rating (0 to 100 scale) [21, 28] | Wheat plant response rating (0-100) [23, 27]
30: Blackgrass plant response rating (0-100) ([2]; 31 g ai/ha) | Horseweed plant response rating (0-100) [16, 27]

From patent US20260285850A1, “SUBSTITUTED OXAZOLIDINONES AND IMIDAZOLINONES AS HERBICIDES” (FMC CORPORATION, priority 2023, published 2026)
